{
  "source": "patent US10131652B2",
  "about": "“Pyrimidinyloxy benzene derivatives as herbicides” (E. I. DU PONT DE NEMOURS AND COMPANY, priority 2014, dated 2018)",
  "format_in_all_cases": "in vivo",
  "key": {"[1]": {"tested_on": "barnyardgrass (Echinochloa crus-galli)", "experiment": "Test D flooded paddy test plant response", "conditions": "Flood (flooded paddy test), visual rating on scale 0 to 100 (0 no effect, 100 complete control), 13 to 15 days", "from_the_text": "(§1) Plant species in the flooded paddy test consisted of rice (Oryza sativa), small-flower umbrella sedge (Cyperus difformis), ducksalad (Heteranthera limosa), and bamyardgrass (Echinochloa crus-galli) grown to the 2-leaf stage for testing. At time of treatment, test pots were flooded to 3 cm above the soil surface, treated by application of test compounds directly to the paddy water, and then maintained at that water depth for the duration of the test. Treated plants and controls were maintained in a greenhouse for 13 to 15 days, after which time all species were compared to controls and visually evaluated. Plant response ratings, summarized in Table D, are based on a scale of 0 to 100 where 0 is no effect and 100 is complete control. A dash (-) response means no test result."}, "[2]": {"tested_on": "ducksalad (Heteranthera limosa)", "experiment": "Test D flooded paddy test plant response", "conditions": "Flood (flooded paddy test), visual rating on scale 0 to 100 (0 no effect, 100 complete control), 13 to 15 days", "from_the_text": "as §1"}, "[3]": {"tested_on": "rice (Oryza sativa)", "experiment": "Test D flooded paddy test plant response", "conditions": "Flood (flooded paddy test), visual rating on scale 0 to 100 (0 no effect, 100 complete control), 13 to 15 days", "from_the_text": "as §1"}, "[4]": {"tested_on": "small-flower umbrella sedge (Cyperus difformis)", "experiment": "Test D flooded paddy test plant response", "conditions": "Flood (flooded paddy test), visual rating on scale 0 to 100 (0 no effect, 100 complete control), 13 to 15 days", "from_the_text": "as §1"}, "[5]": {"tested_on": "arrowleaf sida (Sida rhombifolia)", "experiment": "Test F pre-/postemergence plant response", "conditions": "scale 0 to 100", "summary_of_the_method": "(§2)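 Seeds were sown in silt loam and sprayed preemergence; in parallel, plants at 2–18 cm (1- to 4-leaf) received postemergence sprays. Test chemicals were in a non-phytotoxic solvent with surfactant. After 14–21 days in the greenhouse, injury was rated visually against controls on a 0–100 scale (100 = complete control).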"}, "[6]": {"tested_on": "barnyardgrass (Echinochloa crus-galli)", "experiment": "Test F pre-/postemergence plant response", "conditions": "scale 0 to 100", "summary_of_the_method": "as §2"}, "[7]": {"tested_on": "dayflower (Virginia (VA) dayflower, Commelina virginica)", "experiment": "Test F pre-/postemergence plant response", "conditions": "scale 0 to 100", "summary_of_the_method": "as §2"}, "[8]": {"tested_on": "palmer pigweed (Amaranthus palmeri)", "experiment": "Test F pre-/postemergence plant response", "conditions": "scale 0 to 100", "summary_of_the_method": "as §2"}, "[9]": {"tested_on": "sandbur (southern sandbur, Cenchrus echinatus)", "experiment": "Test F pre-/postemergence plant response", "conditions": "scale 0 to 100", "summary_of_the_method": "as §2"}, "[10]": {"tested_on": "waterhemp (common waterhemp, Amaranthus rudis)", "experiment": "Test F pre-/postemergence plant response", "conditions": "scale 0 to 100", "summary_of_the_method": "as §2"}},
  "data": [
    {"molecule": "FCc1cc(-c2ccccc2Oc2ncc(Cl)cn2)no1", "note": "[Compound 32, 5-chloro-2-[2-[5-(fluoromethyl)-3-isoxazolyl]phenoxy]pyrimidine]", "values": [
      {"measurement": "Plant response rating, Barnyardgrass", "setting": "[1]; 31 g ai/ha", "value": 0},
      {"measurement": "Plant response rating, Barnyardgrass", "setting": "[1]; 62 g ai/ha", "value": 0},
      {"measurement": "Plant response rating, Barnyardgrass", "setting": "[1]; 125 g ai/ha", "value": 10},
      {"measurement": "Plant response rating, Barnyardgrass", "setting": "[1]; 250 g ai/ha", "value": 20},
      {"measurement": "Plant response rating, Ducksalad", "setting": "[2]; 31 g ai/ha", "value": 0},
      {"measurement": "Plant response rating, Ducksalad", "setting": "[2]; 62 g ai/ha", "value": 60},
      {"measurement": "Plant response rating, Ducksalad", "setting": "[2]; 125 g ai/ha", "value": 65},
      {"measurement": "Plant response rating, Ducksalad", "setting": "[2]; 250 g ai/ha", "value": 95},
      {"measurement": "Plant response rating, Rice", "setting": "[3]; 31 g ai/ha", "value": 0},
      {"measurement": "Plant response rating, Rice", "setting": "[3]; 62 g ai/ha", "value": 0},
      {"measurement": "Plant response rating, Rice", "setting": "[3]; 125 g ai/ha", "value": 0},
      {"measurement": "Plant response rating, Rice", "setting": "[3]; 250 g ai/ha", "value": 15},
      {"measurement": "Plant response rating, Sedge, Umbrella", "setting": "[4]; 31 g ai/ha", "value": 0},
      {"measurement": "Plant response rating, Sedge, Umbrella", "setting": "[4]; 62 g ai/ha", "value": 40},
      {"measurement": "Plant response rating, Sedge, Umbrella", "setting": "[4]; 125 g ai/ha", "value": 65},
      {"measurement": "Plant response rating, Sedge, Umbrella", "setting": "[4]; 250 g ai/ha", "value": 90}
    ]},
    {"molecule": "CC(F)(F)c1cc(-c2ccccc2Oc2ncc(Cl)cn2)on1", "note": "[Compound 178]", "values": [
      {"measurement": "Plant response rating, Barnyardgrass", "setting": "[1]; 31 g ai/ha", "value": 0},
      {"measurement": "Plant response rating, Barnyardgrass", "setting": "[1]; 62 g ai/ha", "value": 0},
      {"measurement": "Plant response rating, Barnyardgrass", "setting": "[1]; 125 g ai/ha", "value": 0},
      {"measurement": "Plant response rating, Barnyardgrass", "setting": "[1]; 250 g ai/ha", "value": 0},
      {"measurement": "Plant response rating, Ducksalad", "setting": "[2]; 31 g ai/ha", "value": 40},
      {"measurement": "Plant response rating, Ducksalad", "setting": "[2]; 62 g ai/ha", "value": 65},
      {"measurement": "Plant response rating, Ducksalad", "setting": "[2]; 125 g ai/ha", "value": 70},
      {"measurement": "Plant response rating, Ducksalad", "setting": "[2]; 250 g ai/ha", "value": 70},
      {"measurement": "Plant response rating, Rice", "setting": "[3]; 31 g ai/ha", "value": 0},
      {"measurement": "Plant response rating, Rice", "setting": "[3]; 62 g ai/ha", "value": 0},
      {"measurement": "Plant response rating, Rice", "setting": "[3]; 125 g ai/ha", "value": 0},
      {"measurement": "Plant response rating, Rice", "setting": "[3]; 250 g ai/ha", "value": 0},
      {"measurement": "Plant response rating, Sedge, Umbrella", "setting": "[4]; 31 g ai/ha", "value": 30},
      {"measurement": "Plant response rating, Sedge, Umbrella", "setting": "[4]; 62 g ai/ha", "value": 60},
      {"measurement": "Plant response rating, Sedge, Umbrella", "setting": "[4]; 125 g ai/ha", "value": 60},
      {"measurement": "Plant response rating, Sedge, Umbrella", "setting": "[4]; 250 g ai/ha", "value": 75}
    ]},
    {"molecule": "N#Cc1cccc(Oc2ncc(Cl)cn2)c1-c1cc(C(F)F)on1", "note": "[Compound 180]", "values": [
      {"measurement": "Plant response rating, Barnyardgrass", "setting": "[1]; 31 g ai/ha", "value": 0},
      {"measurement": "Plant response rating, Barnyardgrass", "setting": "[1]; 62 g ai/ha", "value": 0},
      {"measurement": "Plant response rating, Barnyardgrass", "setting": "[1]; 125 g ai/ha", "value": 10},
      {"measurement": "Plant response rating, Barnyardgrass", "setting": "[1]; 250 g ai/ha", "value": 10},
      {"measurement": "Plant response rating, Ducksalad", "setting": "[2]; 31 g ai/ha", "value": 0},
      {"measurement": "Plant response rating, Ducksalad", "setting": "[2]; 62 g ai/ha", "value": 0},
      {"measurement": "Plant response rating, Ducksalad", "setting": "[2]; 125 g ai/ha", "value": 75},
      {"measurement": "Plant response rating, Ducksalad", "setting": "[2]; 250 g ai/ha", "value": 75},
      {"measurement": "Plant response rating, Rice", "setting": "[3]; 31 g ai/ha", "value": 0},
      {"measurement": "Plant response rating, Rice", "setting": "[3]; 62 g ai/ha", "value": 0},
      {"measurement": "Plant response rating, Rice", "setting": "[3]; 125 g ai/ha", "value": 0},
      {"measurement": "Plant response rating, Rice", "setting": "[3]; 250 g ai/ha", "value": 0},
      {"measurement": "Plant response rating, Sedge, Umbrella", "setting": "[4]; 31 g ai/ha", "value": 0},
      {"measurement": "Plant response rating, Sedge, Umbrella", "setting": "[4]; 62 g ai/ha", "value": 50},
      {"measurement": "Plant response rating, Sedge, Umbrella", "setting": "[4]; 125 g ai/ha", "value": 75},
      {"measurement": "Plant response rating, Sedge, Umbrella", "setting": "[4]; 250 g ai/ha", "value": 80}
    ]},
    {"molecule": "Fc1ccc(Oc2ncc(Cl)cn2)c(-c2cc(C(F)(Cl)Cl)on2)c1", "note": "[Compound 221]", "values": [
      {"measurement": "Plant response rating, Barnyardgrass", "setting": "[1]; 62 g ai/ha", "value": 40},
      {"measurement": "Plant response rating, Barnyardgrass", "setting": "[1]; 250 g ai/ha", "value": 60},
      {"measurement": "Plant response rating, Ducksalad", "setting": "[2]; 62 g ai/ha", "value": 80},
      {"measurement": "Plant response rating, Ducksalad", "setting": "[2]; 250 g ai/ha", "value": 90},
      {"measurement": "Plant response rating, Rice", "setting": "[3]; 62 g ai/ha", "value": 15},
      {"measurement": "Plant response rating, Rice", "setting": "[3]; 250 g ai/ha", "value": 40},
      {"measurement": "Plant response rating, Sedge, Umbrella", "setting": "[4]; 62 g ai/ha", "value": 80},
      {"measurement": "Plant response rating, Sedge, Umbrella", "setting": "[4]; 250 g ai/ha", "value": 95},
      {"measurement": "Plant response rating, Arrowleaf Sida", "setting": "[5]; 16 g ai/ha Postemergence", "value": 80},
      {"measurement": "Plant response rating, Arrowleaf Sida", "setting": "[5]; 31 g ai/ha Postemergence", "value": 90},
      {"measurement": "Plant response rating, Arrowleaf Sida", "setting": "[5]; 62 g ai/ha Postemergence", "value": 98},
      {"measurement": "Plant response rating, Arrowleaf Sida", "setting": "[5]; 125 g ai/ha Postemergence", "value": 98},
      {"measurement": "Plant response rating, Barnyardgrass", "setting": "[6]; 16 g ai/ha Postemergence", "value": 15},
      {"measurement": "Plant response rating, Barnyardgrass", "setting": "[6]; 31 g ai/ha Postemergence", "value": 25},
      {"measurement": "Plant response rating, Barnyardgrass", "setting": "[6]; 62 g ai/ha Postemergence", "value": 30},
      {"measurement": "Plant response rating, Barnyardgrass", "setting": "[6]; 125 g ai/ha Postemergence", "value": 70},
      {"measurement": "Plant response rating, Dayflower, VA", "setting": "[7]; 16 g ai/ha Postemergence", "value": 60},
      {"measurement": "Plant response rating, Dayflower, VA", "setting": "[7]; 31 g ai/ha Postemergence", "value": 70},
      {"measurement": "Plant response rating, Dayflower, VA", "setting": "[7]; 62 g ai/ha Postemergence", "value": 80},
      {"measurement": "Plant response rating, Dayflower, VA", "setting": "[7]; 125 g ai/ha Postemergence", "value": 80},
      {"measurement": "Plant response rating, Pigweed, Palmer", "setting": "[8]; 16 g ai/ha Postemergence", "value": 85},
      {"measurement": "Plant response rating, Pigweed, Palmer", "setting": "[8]; 31 g ai/ha Postemergence", "value": 90},
      {"measurement": "Plant response rating, Pigweed, Palmer", "setting": "[8]; 62 g ai/ha Postemergence", "value": 100},
      {"measurement": "Plant response rating, Pigweed, Palmer", "setting": "[8]; 125 g ai/ha Postemergence", "value": 100},
      {"measurement": "Plant response rating, Sandbur", "setting": "[9]; 16 g ai/ha Postemergence", "value": 0},
      {"measurement": "Plant response rating, Sandbur", "setting": "[9]; 31 g ai/ha Postemergence", "value": 0},
      {"measurement": "Plant response rating, Sandbur", "setting": "[9]; 62 g ai/ha Postemergence", "value": 0},
      {"measurement": "Plant response rating, Sandbur", "setting": "[9]; 125 g ai/ha Postemergence", "value": 0},
      {"measurement": "Plant response rating, Waterhemp", "setting": "[10]; 16 g ai/ha Postemergence", "value": 90},
      {"measurement": "Plant response rating, Waterhemp", "setting": "[10]; 31 g ai/ha Postemergence", "value": 98},
      {"measurement": "Plant response rating, Waterhemp", "setting": "[10]; 62 g ai/ha Postemergence", "value": 95},
      {"measurement": "Plant response rating, Waterhemp", "setting": "[10]; 125 g ai/ha Postemergence", "value": 100}
    ]}
  ]
}
